Results reported in US7884083B2, “Immunomodulatory compositions, methods of making, and methods of use thereof” (Dynavax Technologies Corporation, priority 2002, dated 2011).

Legend:
[1] = test system: plasmacytoind dendritic cells (PDCs) of human PBMCs; assay: Intracellular staining and FACS analysis of IFN-α production from PDCs; format: cell-based; settings: double-staining cells as percentage of total PBMCs, 20 μg/mL oligonucleotide, 100 μg/mL PMXB, six hours
Description: Intracellular staining assays and FACS analysis were used to examine IFN-α production from the plasmacytoind dendritic cells (PDCs) of human PBMCs. […] For these assays, the IMC or -ISS and the polymyxin were added separately to the PBMC cell culture which contained human serum albumin. […] After the six hours, the cells were stained with a fluorescently labeled PDC marker, anti-BCDA-2 labeled with FITC, and with anti-IFN-α labeled with PE. FACS analysis of the labeled cells was performed.

[2] = test system: human peripheral blood lymphocytes (PBMCs); assay: hPBMC assay: IFN-γ and IFN-α production by human PBMCs (ELISA); format: cell-based; settings: for immunomodulatory activity in the hPBMC assay: result in words; for IFN-γ/α-enhancing activity in comparison to PMXB or CLN: in words, Table 10 experiment
[3] = dodecyl spacer measured as dialcohol precursor; cited from earlier work
[4] = hydrophobic/lipophilic balance value; cited from earlier work
[5] = Donor 198, no Time given, 20 μg/ml oligonucleotide
[6] = Donor 199, no Time given, 20 μg/ml oligonucleotide
[7] = Donor 28212, Controls, 20 μg/ml oligonucleotide, 100 μg/ml polymyxin
[8] = Donor 28213, Controls, 20 μg/ml oligonucleotide, 100 μg/ml polymyxin
[9] = Donor # 9, 20 μg/ml oligonucleotide, 100 μg/ml PMXB, 24 hours
[10] = Donor # 20, 20 μg/ml oligonucleotide, 100 μg/ml PMXB, 24 hours
[11] = Donor # 37, 20 μg/ml oligonucleotide, 100 μg/ml PMXB, 24 hours
[12] = Donor # 75, 20 μg/ml oligonucleotide, 100 μg/ml PMXB, 24 hours
[13] = Donor # 86, 20 μg/ml oligonucleotide, 100 μg/ml PMXB, 24 hours
[14] = Donor # 87, 20 μg/ml oligonucleotide, 100 μg/ml PMXB, 24 hours
[15] = Donor # 88, 20 μg/ml oligonucleotide, 100 μg/ml PMXB, 24 hours
[16] = Donor # 89, 20 μg/ml oligonucleotide, 100 μg/ml PMXB, 24 hours
[17] = Donor # 90, 20 μg/ml oligonucleotide, 100 μg/ml PMXB, 24 hours
[18] = Donor # 91, 20 μg/ml oligonucleotide, 100 μg/ml PMXB, 24 hours
[19] = Donor # 94, 20 μg/ml oligonucleotide, 100 μg/ml PMXB, 24 hours
[20] = Donor # 95, 20 μg/ml oligonucleotide, 100 μg/ml PMXB, 24 hours
[21] = Donor # 96, 20 μg/ml oligonucleotide, 100 μg/ml PMXB, 24 hours
[22] = Donor # 97, 20 μg/ml oligonucleotide, 100 μg/ml PMXB, 24 hours
[23] = Mean (Table 4), Controls, 20 μg/ml oligonucleotide, 100 μg/ml polymyxin
[24] = Mean (Table 5), no Time given, 20 μg/ml oligonucleotide
[25] = Mean of donors (Table 2), 20 μg/ml oligonucleotide, 100 μg/ml PMXB, 24 hours
[26] = Table 3, Donor 1, PMXB 100 μg/ml, AMTB 10 μg/ml, serum containing medium
[27] = Table 3, Donor 2, PMXB 100 μg/ml, AMTB 10 μg/ml, serum containing medium
[28] = Table 3, Mean, PMXB 100 μg/ml, AMTB 10 μg/ml, serum containing medium
[29] = Table 10, donor 1, 20 μg/ml oligonucleotide, 100 μg/ml polymyxin derivative added separately, 24 hours
[30] = Table 10, donor 2, 20 μg/ml oligonucleotide, 100 μg/ml polymyxin derivative added separately, 24 hours
[31] = Table 10, donor 3, 20 μg/ml oligonucleotide, 100 μg/ml polymyxin derivative added separately, 24 hours
[32] = Table 10, donor 4, 20 μg/ml oligonucleotide, 100 μg/ml polymyxin derivative added separately, 24 hours
[33] = Table 10, donor 5, 20 μg/ml oligonucleotide, 100 μg/ml polymyxin derivative added separately, 24 hours
[34] = Table 10, donor 6, 20 μg/ml oligonucleotide, 100 μg/ml polymyxin derivative added separately, 24 hours
[35] = Table 10, mean of 6 donors, 20 μg/ml oligonucleotide, 100 μg/ml polymyxin derivative added separately, 24 hours
[36] = Donor 28232, no Time given, 20 μg/ml oligonucleotide, 100 μg/ml polymyxin
[37] = Donor 28233, no Time given, 20 μg/ml oligonucleotide, 100 μg/ml polymyxin
[38] = Mean (Table 6), no Time given, 20 μg/ml oligonucleotide, 100 μg/ml polymyxin
[39] = Table 9, Mean, 20 μg/ml oligonucleotide, 100 μg/ml polymyxin
[40] = Table 9, donor 149, 20 μg/ml oligonucleotide, 100 μg/ml polymyxin
[41] = Table 9, donor 208, 20 μg/ml oligonucleotide, 100 μg/ml polymyxin

5′-TCGTCGAACGTTCGAGATGAT-3′ [SEQ ID NO: 39]
BCDA-2/IFN-α d.p. % ([1]; donor 1): 0.08% | BCDA-2/IFN-α d.p. % ([1]; donor 2): 0.14% | BCDA-2/IFN-α d.p. % ([1]; mean): 0.11%

5′-TGACTGTGAACCTTAGAGATGA-3′ (DNA, all phosphorothioate, methylation of C not given here) [−ISS]
IFN-α [2, 5]: 151 pg/mL | IFN-γ [2, 5]: 5 pg/mL | IFN-α [2, 6]: 279 pg/mL | IFN-γ [2, 6]: 18 pg/mL | IFN-α [2, 7]: 225 pg/mL | IFN-γ [2, 7]: 5 pg/mL | IFN-α [2, 8]: 156 pg/mL | IFN-γ [2, 8]: 7 pg/mL | IFN-α [2, 9]: 0 pg/mL | IFN-γ [2, 9]: 0 pg/mL | IFN-γ [2, 10]: 4 pg/mL | IFN-α [2, 11]: 0 pg/mL | IFN-γ [2, 11]: 5 pg/mL | IFN-γ [2, 12]: 1 pg/mL | IFN-α [2, 13]: 15 pg/mL | IFN-γ [2, 13]: 12 pg/mL | IFN-α [2, 14]: 0 pg/mL | IFN-γ [2, 14]: 12 pg/mL | IFN-α [2, 15]: 19 pg/mL | IFN-γ [2, 15]: 70 pg/mL | IFN-α [2, 16]: 17 pg/mL | IFN-γ [2, 16]: 7 pg/mL | IFN-α [2, 17]: 0 pg/mL | IFN-γ [2, 17]: 0 pg/mL | IFN-α [2, 18]: 0 pg/mL | IFN-γ [2, 18]: 30 pg/mL | IFN-α [2, 19]: 0 pg/mL | IFN-γ [2, 19]: 0 pg/mL | IFN-α [2, 20]: 0 pg/mL | IFN-γ [2, 20]: 4 pg/mL | IFN-γ [2, 21]: 9 pg/mL | IFN-γ [2, 22]: 5 pg/mL | IFN-α [2, 23]: 191 pg/mL | IFN-γ [2, 23]: 6 pg/mL | IFN-α [2, 24]: 215 pg/mL | IFN-γ [2, 24]: 12 pg/mL | IFN-α [2, 25]: 5 pg/mL | IFN-γ [2, 25]: 11 pg/mL | IFN-α [2, 26]: 3 pg/mL | IFN-γ [2, 26]: 1 pg/mL | IFN-α [2, 27]: 0 pg/mL | IFN-γ [2, 27]: 0 pg/mL | IFN-α [2, 28]: 1 pg/mL | IFN-γ [2, 28]: 0 pg/mL | IFN-α [2, 29]: 52 pg/mL | IFN-γ [2, 29]: 2 pg/mL | IFN-α [2, 30]: 52 pg/mL | IFN-γ [2, 30]: 2 pg/mL | IFN-α [2, 31]: 52 pg/mL | IFN-γ [2, 31]: 2 pg/mL | IFN-α [2, 32]: 52 pg/mL | IFN-γ [2, 32]: 2 pg/mL | IFN-α [2, 33]: 26 pg/mL | IFN-γ [2, 33]: 10 pg/mL | IFN-α [2, 34]: 26 pg/mL | IFN-γ [2, 34]: 2 pg/mL | IFN-α [2, 35]: 43 pg/mL | IFN-γ [2, 35]: 3 pg/mL

5′-TGCTTGCAAGCTTGCAAGCA-3′ (listed as DNA, chemistry not given here) [−ISS SEQ ID NO: 38, reference compound]
BCDA-2/IFN-α d.p. % ([1]; donor 1): 0.00% | BCDA-2/IFN-α d.p. % ([1]; donor 2): 0.00% | BCDA-2/IFN-α d.p. % ([1]; mean): 0.00%

OCCCCCCCCCCCCO [1,12-dihydroxydodecane]
solubility [3]: < 5 mg/mL

C[C@@H]1[C@H](O)[C@@H](C)/C=C/C=C/C=C/C=C/C=C/C=C/C=C/[C@H](O[C@@H]2O[C@H](C)[C@@H](O)[C@H](N)[C@@H]2O)C[C@@H]2O[C@](O)(C[C@@H](O)C[C@@H](O)[C@H](O)CC[C@@H](O)C[C@@H](O)CC(=O)O[C@H]1C)C[C@H](O)[C@H]2C(=O)O [AMTB, amphotericin B]
IFN-α [2, 26]: 0 pg/mL | IFN-γ [2, 26]: 0 pg/mL | IFN-α [2, 27]: 0 pg/mL | IFN-γ [2, 27]: 0 pg/mL | IFN-α [2, 28]: 0 pg/mL | IFN-γ [2, 28]: 0 pg/mL | immunomodulatory activity in the hPBMC assay [2]: no activity on its own

Polymyxin B [PMXB]
IFN-α [2, 7]: 268 pg/mL | IFN-γ [2, 7]: 5 pg/mL | IFN-α [2, 8]: 213 pg/mL | IFN-γ [2, 8]: 4 pg/mL | IFN-Υ [2, 36]: 8 pg/mL | IFN-α [2, 36]: 16 pg/mL | IFN-Υ [2, 37]: 7 pg/mL | IFN-α [2, 37]: 84 pg/mL | IFN-γ [2, 10]: 20 pg/mL | IFN-α [2, 11]: 0 pg/mL | IFN-γ [2, 11]: 228 pg/mL | IFN-γ [2, 12]: 6 pg/mL | IFN-α [2, 13]: 353 pg/mL | IFN-γ [2, 13]: 23 pg/mL | IFN-α [2, 14]: 326 pg/mL | IFN-γ [2, 14]: 33 pg/mL | IFN-α [2, 15]: 33 pg/mL | IFN-γ [2, 15]: 112 pg/mL | IFN-α [2, 16]: 9 pg/mL | IFN-γ [2, 16]: 3 pg/mL | IFN-α [2, 17]: 0 pg/mL | IFN-γ [2, 17]: 0 pg/mL | IFN-α [2, 18]: 0 pg/mL | IFN-γ [2, 18]: 47 pg/mL | IFN-α [2, 20]: 0 pg/mL | IFN-γ [2, 20]: 17 pg/mL | IFN-γ [2, 21]: 55 pg/mL | IFN-γ [2, 22]: 21 pg/mL | IFN-α [2, 23]: 241 pg/mL | IFN-γ [2, 23]: 5 pg/mL | IFN-Υ [2, 38]: 7 pg/mL | IFN-α [2, 38]: 50 pg/mL | IFN-α [2, 25]: 90 pg/mL | IFN-γ [2, 25]: 47 pg/mL | IFN-α [2, 26]: 1 pg/mL | IFN-γ [2, 26]: 23 pg/mL | IFN-α [2, 27]: 0 pg/mL | IFN-γ [2, 27]: 6 pg/mL | IFN-α [2, 28]: 0 pg/mL | IFN-γ [2, 28]: 15 pg/mL | IFN-Υ [2, 39]: 127 pg/mL | IFN-α [2, 39]: 32 pg/mL | IFN-Υ [2, 40]: 195 pg/mL | IFN-α [2, 40]: 32 pg/mL | IFN-Υ ([2]; Table 9, donor 206, 20 μg/ml oligonucleotide, 100 μg/ml polymyxin): 14 pg/mL | IFN-Υ [2, 41]: 171 pg/mL | IFN-α [2, 41]: 32 pg/mL | IFN-α ([2]; Table 9, donor 209, 20 μg/ml oligonucleotide, 100 μg/ml polymyxin): 32 pg/mL | immunomodulatory activity in the hPBMC assay [2]: no immunomodulatory activity on its own

colistin methanesulfonate [CMS]
IFN-γ/α-enhancing activity in comparison to PMXB or CLN [2]: substantially reduced

polyethylene glycol sorbitan monooleate
HLB [4]: 15.4

polymyxin B nonapeptide [PMXB-9]
IFN-γ/α-enhancing activity in comparison to PMXB or CLN [2]: substantially reduced

polyoxyethylene(20) sorbitan trioleate [Tween 85]
HLB [4]: 11 | IFN-Υ [2, 36]: 15 pg/mL | IFN-α [2, 36]: 66 pg/mL | IFN-Υ [2, 37]: 6 pg/mL | IFN-α [2, 37]: 55 pg/mL | IFN-Υ [2, 38]: 11 pg/mL | IFN-α [2, 38]: 60 pg/mL
